# Reference: US4250170A, “Antibacterial agents Bu-2349A and B and method of using same” (Bristol-Myers Company, priority 1979, dated 1981)
# What was measured:
# [1] = tested on: Escherichia coli (Ec-49), APH(3')-2; assay: MIC, two-fold agar dilution; format: cell-based; conditions: 18 h, Table 3, Mueller-Hinton agar, 10^-4 dilution, enzyme APH(3')-2
# [2] = tested on: Proteus stuartii (Ps-2), AAC(2'); assay: MIC, two-fold agar dilution; format: cell-based; conditions: 18 h; Table 3; Mueller-Hinton agar, 10^-4 dilution; enzyme AAC(2')
# [3] = tested on: Streptococcus pneumoniae (Dp-4); assay: MIC, two-fold agar dilution; format: cell-based; conditions: 18 h, Table 3, GC agar, 10^-2 dilution
# [4] = tested on: Enterobacter cloacae (El-35), AAC(3)-3; assay: MIC, two-fold agar dilution; format: cell-based; conditions: 18 h, Table 3, Mueller-Hinton agar, 10^-4 dilution, enzyme AAC(3)-3
# Proteus rettgeri (Pr-2) = assay: MIC, two-fold agar dilution; format: cell-based; conditions: Providencia rettgeri, 18 h; Table 3; Mueller-Hinton agar, 10^-4 dilution
# Proteus vulgaris (Pv-1) = assay: MIC, two-fold agar dilution; format: cell-based; conditions: 18 h, Table 3, Mueller-Hinton agar, 10^-4 dilution
# [5] = tested on: Escherichia coli (Ec-62), AAC(3)- 1; assay: MIC, two-fold agar dilution; format: cell-based; conditions: 18 h, Table 3, Mueller-Hinton agar, 10^-4 dilution, enzyme AAC(3)- 1
# [6] = tested on: Escherichia coli (Ec-9), AAC(6')-1; assay: MIC, two-fold agar dilution; format: cell-based; conditions: 18 h, Table 3, Mueller-Hinton agar, 10^-4 dilution, enzyme AAC(6')-1
# [7] = tested on: Serratia marcescens (Sm-2); assay: MIC, two-fold agar dilution; format: cell-based; conditions: 18 h, Table 3, Mueller-Hinton agar, 10^-4 dilution
# [8] = tested on: Streptococcus viridans (Sv-1); assay: MIC, two-fold agar dilution; format: cell-based; conditions: 18 h, Table 3, GC agar, 10^-2 dilution
# [9] = tested on: Mycobacterium ranae ATCC 110 (Mr-1); assay: MIC, two-fold agar dilution; format: cell-based; conditions: ATCC110, 18 h, Table 3, Mueller-Hinton agar, 10^-4 dilution
# [10] = tested on: Staphylococcus epidermidis (Si-2), ANT (4'); assay: MIC, two-fold agar dilution; format: cell-based; conditions: 18 h, Table 3, Mueller-Hinton agar, 10^-4 dilution, enzyme ANT (4')
# [11] = tested on: Hemophylus influenzae (He-2); assay: MIC, two-fold agar dilution; format: cell-based; conditions: 18 h; Table 3; GC agar, 10^-2 dilution
# [12] = tested on: Mycobacterium phlei D88 (Mp-1); assay: MIC, two-fold agar dilution; format: cell-based; conditions: Mycolicibacterium phlei, 18 h; Table 3; Mueller-Hinton agar, 10^-4 dilution
# [13] = tested on: Escherichia coli NIHJ (Ec-1); assay: MIC, two-fold agar dilution; format: cell-based; conditions: 18 h, Table 3, Mueller-Hinton agar, 10^-4 dilution
# [14] = tested on: Escherichia coli (Ec-72), ANT(2"); assay: MIC, two-fold agar dilution; format: cell-based; conditions: 18 h, Table 3, Mueller-Hinton agar, 10^-4 dilution, enzyme ANT(2")
# [15] = tested on: Neisseria meningitidis (Nm-1); assay: MIC, two-fold agar dilution; format: cell-based; conditions: 18 h, Table 3, GC agar, 10^-2 dilution
# [16] = tested on: Staphylococcus aureus (Sa-77), ANT(4'); assay: MIC, two-fold agar dilution; format: cell-based; conditions: 18 h
# [17] = tested on: Streptococcus pyogenes (Sp-3); assay: MIC, two-fold agar dilution; format: cell-based; conditions: 18 h, Table 3, GC agar, 10^-2 dilution
# Mycobacterium 607 (M6-1) = assay: MIC, two-fold agar dilution; format: cell-based; conditions: 18 h, Table 3, Mueller-Hinton agar, 10^-4 dilution
# Proteus morganii (Pg-1) = assay: MIC, two-fold agar dilution; format: cell-based; conditions: Morganella morganii, 18 h, Table 3; Mueller-Hinton agar, 10^-4 dilution
# Method: (§1) The minimum inhibitory concentrations (MIC) of Bu-2349A and B were determined against a wide variety of bacteria by the two-fold agar dilution method. Mueller-Hinton agar medium was generally used for the determination of bacterial MIC except for species of Streptococcus, Neisseria and Hemophilus for which Gonococcus agar medium (GC agar, Nissui Co., Tokyo) was used. Gifu anaerobe agar medium (GAM agar, Eiken Co., Tokyo) was used for anaerobic bacteria. The MIC's were determined after overnight incubation at 37° C. with an initial inoculum equivalent to a 10^-4 dilution of an 18-hour culture for the aerobic and anaerobic bacteria, except for Streptococcus, Neisseria and Hemophilus for which a 10^-2 dilution was used.
# (§2) The influence of inoculum size on MIC was tested on Mueller-Hinton agar using an inoculum of […], 10^-2 or 10^-4 dilution of the overnight culture of test organisms.
# (§3) The effect of media pH on the MIC's of Bu-2349A was determined at three pH levels (6, 7 and 8) using Mueller-Hinton agar.
# (§4) The media effect on the MIC's of Bu-2349A was tested using four kinds of assay media: Mueller-Hinton agar (MHA), nutrient agar (NA), heart infusion agar (HIA) and brain heart infusion agar (BHIA). The pH was adjusted at 7 and a 10^-4 dilution of overnight culture was used for the inoculum.
# [18] = tested on: Escherichia coli Juhl (Ec-3); assay: MIC, two-fold agar dilution; format: cell-based; conditions: 18 h, Table 3, Mueller-Hinton agar, 10^-4 dilution
# Method: as §1, §2, §3, §4
# [19] = tested on: Bacillus subtilis PCI 219 (Bs-1); assay: MIC, two-fold agar dilution; format: cell-based; conditions: 18 h, Table 3, Mueller-Hinton agar, 10^-4 dilution
# Method: as §1, §2, §3, §4
# Proteus mirabilis (Pm-1) = assay: MIC, two-fold agar dilution; format: cell-based; conditions: Proteus mirabilis, 18 h, Table 3; Mueller-Hinton agar, 10^-4 dilution; read-out: MIC
# Method: as §1, §2, §3, §4
# [20] = tested on: Klebsiella pneumoniae (Kp-2); assay: MIC, two-fold agar dilution; format: cell-based; conditions: 18 h, Table 3, Mueller-Hinton agar, 10^-4 dilution, read-out: MIC
# Method: as §1, §2, §3, §4
# [21] = tested on: Pseudomonas aeruginosa (Pa-3); assay: MIC, two-fold agar dilution; format: cell-based; conditions: 18 h, Table 3, Mueller-Hinton agar, 10^-4 dilution
# Method: as §1, §2, §3, §4
# [22] = tested on: Escherichia coli ML-1630 (Ec-5), APH(3')-1; assay: MIC, two-fold agar dilution; format: cell-based; conditions: 18 h, Table 3, Mueller-Hinton agar, 10^-4 dilution, enzyme APH(3')-1
# Method: as §1, §2, §3, §4
# [23] = tested on: Staphylococcus aureus 209P (Sa-1); assay: MIC, two-fold agar dilution; format: cell-based; conditions: 18 h, Table 3, Mueller-Hinton agar, 10^-4 dilution
# Method: as §1, §2, §3, §4
# [24] = tested on: Neisseria gonorrhoeae (Ng-1); assay: MIC, two-fold agar dilution; format: cell-based; conditions: 18 h, Table 3, GC agar, 10^-2 dilution
# [25] = tested on: Staphylococcus aureus Smith (Sa-2); assay: MIC, two-fold agar dilution; format: cell-based; conditions: 18 h, Table 3, Mueller-Hinton agar, 10^-4 dilution
# [26] = tested on: gram-positive and gram-negative bacteria; assay: in vitro antibacterial activity, overall statements; format: cell-based
# Method: as §1, §2, §3, §4
# [27] = tested on: Klebsiella pneumoniae (Kp-33), AAC(3)-3; assay: MIC, two-fold agar dilution; format: cell-based; conditions: 18 h, Table 3, Mueller-Hinton agar, 10^-4 dilution, enzyme AAC(3)-3
# [28] = tested on: Staphylococcus aureus Terajima (Sa-33); assay: MIC, two-fold agar dilution; format: cell-based; conditions: 18 h, Table 3, Mueller-Hinton agar, 10^-4 dilution
# solubility = format: physicochemical; conditions: hydrochloride salt
smiles,measurement,setting,value
C=C1OC(OC2C(CO)OC(Oc3ccc(C(=O)NCCCNCCCCN)cc3)C2O)C(O)C(OC2OC(CO)C(OC3OC(C)C(N)C(O)C3NC(=O)C(C)N)C(O)C2O)C1O (stereo not shown) [Bu-2349B],MIC,[1],3.1 µg/mL
same,MIC,[2],1.6 µg/mL
same,MIC,[3],> 100 µg/mL
same,MIC,[4],12.5 µg/mL
same,MIC,Proteus rettgeri (Pr-2),3.1 µg/mL
same,MIC,Proteus vulgaris (Pv-1),6.3 µg/mL
same,MIC,[5],12.5 µg/mL
same,MIC,[6],0.8 µg/mL
same,MIC,[7],50 µg/mL
same,MIC,[8],> 100 µg/mL
same,MIC,[9],25 µg/mL
same,MIC,[10],25 µg/mL
same,MIC,[11],> 100 µg/mL
same,MIC,[12],25 µg/mL
same,MIC,[13],3.1 µg/mL
same,MIC,[14],6.3 µg/mL
same,MIC,[15],> 100 µg/mL
same,MIC,[16],50 µg/mL
same,MIC,[17],> 100 µg/mL
same,MIC,Mycobacterium 607 (M6-1),12.5 µg/mL
same,MIC,Proteus morganii (Pg-1),100 µg/mL
same,MIC,[18],6.3 µg/mL
same,MIC,[19],25 µg/mL
same,MIC,Proteus mirabilis (Pm-1),25 µg/mL
same,MIC,[20],12.5 µg/mL
same,MIC,[21],100 µg/mL
same,MIC,[22],6.3 µg/mL
same,MIC,[23],12.5 µg/mL
same,MIC,[24],> 100 µg/mL
same,MIC,[25],12.5 µg/mL
same,inhibitory activity both in vitro and in vivo,"[26]; gram-positive and gram-negative bacteria, including aminoglycoside-resistant bacteria, summary statement",marked inhibitory activity
same,antibacterial activity,[26]; including bacteria which produce aminoglycoside-modifying enzymes,active
same,MIC,[27],12.5 µg/mL
same,MIC,[28],6.3 µg/mL
same,"solubility in methanol, ethanol, dimethylsulfoxide and dimethylformamide","solubility; methanol, ethanol, dimethylsulfoxide and dimethylformamide",slightly soluble
same,solubility in other common organic solvents,solubility; other common organic solvents,practically insoluble
same,solubility in water,solubility; water,soluble
